Active and inactive are the calls of the source. Rule as the data show it, for most assays here: actives have a measured EC50 and inactives only a lower limit.
Columns and labels:
[1] = target: T1, Zinc finger protein mex-5 (Caenorhabditis elegans, UniProt Q9XUB2); experiment: MEX-5/TCR-2 RNA interaction inhibitors, dose response, biochemical, C. elegans, fluorescence polarization (AID 1960)
T1 sequence (Q9XUB2 whole entry): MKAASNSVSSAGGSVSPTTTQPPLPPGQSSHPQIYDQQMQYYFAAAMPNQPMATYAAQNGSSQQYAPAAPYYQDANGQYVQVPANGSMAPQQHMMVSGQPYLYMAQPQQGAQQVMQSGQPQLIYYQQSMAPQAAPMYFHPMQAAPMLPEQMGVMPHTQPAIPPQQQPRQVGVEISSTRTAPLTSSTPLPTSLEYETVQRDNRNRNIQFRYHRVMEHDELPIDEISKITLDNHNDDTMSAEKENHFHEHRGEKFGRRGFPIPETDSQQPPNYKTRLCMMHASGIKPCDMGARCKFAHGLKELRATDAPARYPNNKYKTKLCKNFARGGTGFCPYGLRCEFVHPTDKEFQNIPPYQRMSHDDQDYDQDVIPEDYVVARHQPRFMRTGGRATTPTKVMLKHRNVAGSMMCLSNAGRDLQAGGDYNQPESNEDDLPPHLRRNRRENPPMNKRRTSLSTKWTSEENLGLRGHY

[2] = target: T2, RNA-binding protein pos-1 (Caenorhabditis elegans, UniProt G5EF15); experiment: inhibitors of POS-1/mex-3 RNA binding, dose response, biochemical, fluorescence polarization (AID 1964);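 also: purified POS-1 fused to maltose binding protein made in E. coli; potency of compounds blocking POS-1 binding to fluorescent RNA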
T2 sequence (G5EF15 whole entry): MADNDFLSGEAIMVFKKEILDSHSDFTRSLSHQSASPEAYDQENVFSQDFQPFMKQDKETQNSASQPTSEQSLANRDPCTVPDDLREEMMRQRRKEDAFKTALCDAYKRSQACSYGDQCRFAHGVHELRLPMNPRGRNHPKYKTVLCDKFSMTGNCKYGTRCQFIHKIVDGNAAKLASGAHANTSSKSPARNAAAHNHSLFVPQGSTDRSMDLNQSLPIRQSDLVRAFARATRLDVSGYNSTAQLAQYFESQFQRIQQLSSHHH

[3] = target: Luciferin 4-monooxygenase (Photinus pyralis, UniProt P08659); experiment: firefly luciferase enzyme inhibitors, dose response, biochemical, luminescence (AID 1891)
[4] = Luminescence Cell-Based Dose Confirmation HTS to Identify Inhibitors of Platelet Dense Granule Release. [Related pubchem assays: 1663 (Primary HTS), 1678 (Summary of Project)]; format: functional
Cytochrome P450 3A4 = Cytochrome P450 3A4 (Homo sapiens, UniProt P08684);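 also: CYP3A4 tested as one member of a cytochrome P450 panel screen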
[5] = target: T3, Corticotropin-releasing factor receptor 2/Corticotropin-releasing factor-binding protein (Homo sapiens, UniProt P24387+Q13324); experiment: activators of CRF receptor 2 with binding protein – uHTS hits, confirmation (AID 602473); format: functional; conditions: read-out: EC50_Mean
T3 sequence (Q13324 whole entry): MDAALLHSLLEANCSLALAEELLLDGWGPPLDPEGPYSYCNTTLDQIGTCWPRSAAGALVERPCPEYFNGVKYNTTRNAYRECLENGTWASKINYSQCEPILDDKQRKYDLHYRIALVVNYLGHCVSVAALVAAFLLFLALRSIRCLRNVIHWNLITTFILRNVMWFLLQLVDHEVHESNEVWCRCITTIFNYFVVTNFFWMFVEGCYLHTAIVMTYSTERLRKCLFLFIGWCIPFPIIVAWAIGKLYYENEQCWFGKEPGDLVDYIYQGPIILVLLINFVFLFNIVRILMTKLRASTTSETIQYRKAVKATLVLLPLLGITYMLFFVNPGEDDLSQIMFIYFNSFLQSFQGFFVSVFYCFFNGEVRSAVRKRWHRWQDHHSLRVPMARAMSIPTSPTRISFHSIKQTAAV
T3 sequence (P24387 whole entry): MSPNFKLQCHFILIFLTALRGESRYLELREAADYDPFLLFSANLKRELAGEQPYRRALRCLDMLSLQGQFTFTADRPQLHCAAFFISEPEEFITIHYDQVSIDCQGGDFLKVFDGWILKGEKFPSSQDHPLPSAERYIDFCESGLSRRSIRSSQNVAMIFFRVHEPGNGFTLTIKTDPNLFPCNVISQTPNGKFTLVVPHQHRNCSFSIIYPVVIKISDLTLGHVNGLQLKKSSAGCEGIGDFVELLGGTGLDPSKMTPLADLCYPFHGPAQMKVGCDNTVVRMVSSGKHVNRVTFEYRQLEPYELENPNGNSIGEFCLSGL

[6] = inhibitors of intracellular T. cruzi replication, confirmation, NIH3T3 host cells, beta-gal luminescence (AID 2044); format: functional, cell-based;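 also: intracellular parasites grown in NIH/3T3 mouse fibroblasts as host cells; luminescent beta-galactosidase reporter signal from transgenic T. cruzi replicating inside host cells; inhibitors lower the luminescence signal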
[7] = cytotoxicity toward NIH3T3 fibroblasts, dose response, counter-screen, cell-based, ATP luminescence, mouse fibroblasts (AID 2010); format: functional;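 also: cells exposed to compound for about 90 hours before reading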
[8] = target: FAD-linked sulfhydryl oxidase ALR (Homo sapiens, UniProt P55789); experiment: inhibitors of human ALR sulfhydryl oxidase, dose response, biochemical, H2O2 detection, luminescence, cherry-pick (AID 493248)
[9] = target: T4, Rac GTPase-activating protein 1 (Homo sapiens, UniProt Q9H0H5); experiment: MgcRacGAP GTPase-activating activity inhibitors, confirmation, biochemical, ADP Hunter fluorescence, primary and confirmatory (AID 624330); format: functional
T4 sequence (Q9H0H5 whole entry): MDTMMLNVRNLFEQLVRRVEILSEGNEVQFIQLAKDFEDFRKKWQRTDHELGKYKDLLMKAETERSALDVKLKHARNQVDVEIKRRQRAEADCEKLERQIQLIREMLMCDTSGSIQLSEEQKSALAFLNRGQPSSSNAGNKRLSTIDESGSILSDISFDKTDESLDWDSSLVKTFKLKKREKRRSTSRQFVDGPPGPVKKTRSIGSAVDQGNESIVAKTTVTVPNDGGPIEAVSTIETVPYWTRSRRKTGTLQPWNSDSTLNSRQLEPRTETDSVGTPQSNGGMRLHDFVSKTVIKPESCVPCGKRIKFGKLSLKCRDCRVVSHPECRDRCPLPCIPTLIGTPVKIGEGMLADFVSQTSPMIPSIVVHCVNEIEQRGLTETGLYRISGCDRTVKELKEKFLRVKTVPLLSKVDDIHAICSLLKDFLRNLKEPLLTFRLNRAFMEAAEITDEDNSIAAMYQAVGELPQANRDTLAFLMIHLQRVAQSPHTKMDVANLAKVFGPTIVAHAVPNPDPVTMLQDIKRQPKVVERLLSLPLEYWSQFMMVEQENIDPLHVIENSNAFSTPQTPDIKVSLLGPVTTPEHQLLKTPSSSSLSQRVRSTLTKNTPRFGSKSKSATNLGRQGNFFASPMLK

[10] = inhibitors of firefly luciferase expression or activity, dose response, H4 neuroglioma cells, luminescence (AID 1990); format: functional, cell-based
[11] = inhibitors of SNCA 5'UTR-driven reporter translation, confirmation, H4 neuroglioma cells, luminescence (AID 1988); format: functional, cell-based
[12] = Luminescence Cell-Based Dose Response HTS to Identify Inhibitors of 5'UTR Stem-Loop Driven Prion Protein mRNA Translation in H4 Neuroglioblastoma Cells. [Related pubchem assays: 1827 (Project Summary), 1813 (Primary HTS)]; format: functional
Cytochrome P450 2C9 = Cytochrome P450 2C9 (Homo sapiens, UniProt P11712)
[13] = Luminescence Cell-Based Dose Response HTS to Identify Activators of Luciferase Translation or Activity in H4 […] Cells. [Related pubchem assays: 1829 (Project Summary), 1814 (Primary HTS)]; format: functional
H4 = experiment: Luminescence Cell-Based Dose Response HTS to Identify Activators of 5'UTR Stem-Loop Driven Prion Protein mRNA Translation in H4 Neuroglioblastoma Cells. [Related pubchem assays: 1829 (Project Summary), 1814 (Primary HTS)]; format: functional; conditions: Homo sapiens

Sequence of Luciferin 4-monooxygenase (P08659 whole entry): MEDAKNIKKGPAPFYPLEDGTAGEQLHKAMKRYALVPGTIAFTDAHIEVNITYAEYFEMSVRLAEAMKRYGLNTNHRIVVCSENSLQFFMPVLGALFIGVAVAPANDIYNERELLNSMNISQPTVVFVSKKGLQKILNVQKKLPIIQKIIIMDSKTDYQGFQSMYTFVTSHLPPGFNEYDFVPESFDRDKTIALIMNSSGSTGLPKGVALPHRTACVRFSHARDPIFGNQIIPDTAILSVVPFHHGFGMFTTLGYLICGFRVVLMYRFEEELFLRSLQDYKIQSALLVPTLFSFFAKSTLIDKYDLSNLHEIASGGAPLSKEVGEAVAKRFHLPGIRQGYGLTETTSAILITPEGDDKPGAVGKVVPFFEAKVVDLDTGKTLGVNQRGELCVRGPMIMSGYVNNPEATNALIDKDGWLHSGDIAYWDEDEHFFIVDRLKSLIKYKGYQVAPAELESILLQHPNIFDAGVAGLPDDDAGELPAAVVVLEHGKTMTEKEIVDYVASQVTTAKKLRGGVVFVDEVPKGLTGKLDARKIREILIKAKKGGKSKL
Sequence of Cytochrome P450 3A4 (P08684 whole entry): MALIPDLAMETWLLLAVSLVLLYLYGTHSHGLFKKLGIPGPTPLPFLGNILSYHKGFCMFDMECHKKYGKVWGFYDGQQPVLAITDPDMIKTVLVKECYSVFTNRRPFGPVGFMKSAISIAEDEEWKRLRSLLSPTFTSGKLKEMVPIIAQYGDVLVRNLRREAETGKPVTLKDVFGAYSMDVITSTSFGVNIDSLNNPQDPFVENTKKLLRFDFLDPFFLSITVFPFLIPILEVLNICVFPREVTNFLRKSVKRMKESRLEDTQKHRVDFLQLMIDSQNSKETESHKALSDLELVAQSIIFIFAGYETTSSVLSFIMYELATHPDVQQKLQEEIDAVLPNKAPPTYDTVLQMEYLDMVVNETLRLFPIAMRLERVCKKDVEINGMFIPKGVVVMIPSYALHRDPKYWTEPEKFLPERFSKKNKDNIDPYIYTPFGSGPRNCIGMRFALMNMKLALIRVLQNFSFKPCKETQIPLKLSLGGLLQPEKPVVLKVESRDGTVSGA
Sequence of FAD-linked sulfhydryl oxidase ALR (P55789 whole entry): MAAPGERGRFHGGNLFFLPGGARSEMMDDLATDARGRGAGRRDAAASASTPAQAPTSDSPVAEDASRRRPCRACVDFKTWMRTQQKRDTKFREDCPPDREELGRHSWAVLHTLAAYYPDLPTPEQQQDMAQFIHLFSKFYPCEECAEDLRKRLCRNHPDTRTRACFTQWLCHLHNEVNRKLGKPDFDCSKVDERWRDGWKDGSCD
Sequence of Cytochrome P450 2C9 (P11712 whole entry): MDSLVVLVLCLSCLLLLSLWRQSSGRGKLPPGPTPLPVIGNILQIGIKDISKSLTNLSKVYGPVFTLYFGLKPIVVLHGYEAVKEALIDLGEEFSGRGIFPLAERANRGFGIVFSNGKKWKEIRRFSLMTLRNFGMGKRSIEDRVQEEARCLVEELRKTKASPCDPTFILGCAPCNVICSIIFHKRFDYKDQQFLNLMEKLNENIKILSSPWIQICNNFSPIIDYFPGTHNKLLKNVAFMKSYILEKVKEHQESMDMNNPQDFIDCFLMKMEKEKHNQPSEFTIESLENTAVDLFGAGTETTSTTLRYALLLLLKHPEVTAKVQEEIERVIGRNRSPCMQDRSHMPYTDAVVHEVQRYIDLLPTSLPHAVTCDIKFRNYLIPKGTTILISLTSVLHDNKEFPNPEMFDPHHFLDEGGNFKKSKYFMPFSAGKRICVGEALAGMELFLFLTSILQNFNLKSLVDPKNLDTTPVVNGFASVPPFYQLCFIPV

## COc1cccc(C2(O)CCN(CC(=O)Nc3nc(C)cs3)CC2)c1
[1]
  EC50: > 300 µM (not active)
[2]
  EC50: > 300 µM (not active)

## CCCCC1=CC2=CC(=O)C(C)(OC(=O)c3cnc4ccccc4n3)C(=O)C2=CO1 (configuration not stated)
[1]
  EC50: 19 µM (active)
[2]
  EC50: 19.9 µM (active)

## CCOC(=O)c1ccc(-n2c(CCC(=O)O)ccc2-c2ccccc2)cc1
[1]
  EC50: > 300 µM (not active)
[2]
  EC50: > 300 µM (not active)

## CC(=O)NCCNc1ccc([N+](=O)[O-])cc1C#N
[1]
  EC50: > 300 µM (not active)
[2]
  EC50: > 300 µM (not active)

## COCCNC(=O)/C(C#N)=C/c1ccc(O)cc1
[3]
  EC50: 4.8 µM (active)
[4]
  EC50: 1.62 µM (active)

## Cc1c(Cl)ccc2sc(NC(=O)C3CC3)nc12
[3]
  EC50: > 112 µM (not active)
[4]
  EC50: > 112 µM (not active)

## O=C(O)c1nc2nc(Cl)c(Cl)nc2[nH]1
Cytochrome P450 3A4
  AC50: 3.16 µM (inconclusive)

## CC(=O)N1N=C2C3CCN(CC3)C2C1c1cccc2ccccc12 (configuration not stated)
[5]
  EC50: > 53 µM (inactive)

## COc1cc(/C=C(\C#N)C(=O)NCCc2ccccc2)cc(OC)c1O
[5]
  EC50: > 53 µM (inactive)

## COc1cc(C)c(N)cc1C(C)C
[6]
  EC50: 16.9 µM (active)
[7]
  EC50: > 60 µM (not active)
[8]
  AC50: 0.027 µM (active)
[9]
  IC50: 113 µM (active)

## CCn1c2ccccc2c2cc(NC(=O)CSc3nnc(-c4cccc(Cl)c4)o3)ccc21
[3]
  EC50: > 112 µM (not active)
[4]
  EC50: > 112 µM (not active)

## CNc1nc2c3ccccc3n(C(C)=O)c2s1
[3]
  EC50: > 112 µM (not active)
[9]
  IC50: 184 µM (active)
[4]
  EC50: > 112 µM (not active)

## CCN(CC)c1ccc(NC(=O)CN2CCN(c3nc(C)cc(C)n3)CC2)cc1
[8]
  AC50: 1.03 µM (active)

## CC1CCCCN1S(=O)(=O)c1ccc(S(=O)(=O)N(CC(=O)Nc2ccccc2)Cc2cccs2)cc1 (configuration not stated)
[6]
  EC50: 1.7 µM (active)
[7]
  EC50: > 60 µM (inconclusive)
[3]
  EC50: > 112 µM (not active)
[4]
  EC50: > 112 µM (not active)

## Cc1nc2cc(-c3cccc(F)c3)nn2c(C)c1CCC(=O)N1CCN(c2ccccn2)CC1
[10]
  EC50: 11.9 µM (active)
[11]
  EC50: 12.4 µM (active)
[12]
  EC50: 14.1 µM (active)

## N#CC1=C(N)C(C#N)(C#N)C(c2cccnc2)C2CCCC=C12 (configuration not stated)
[1]
  EC50: 17.5 µM (active)
[2]
  EC50: 22.2 µM (active)

## CN1CCC(NC(=O)Nc2cccc(C(F)(F)F)c2)CC1
[3]
  EC50: > 112 µM (not active)
[4]
  EC50: > 112 µM (not active)

## COc1cc(OC)cc(C(=O)Nc2ccc(S(=O)(=O)Nc3cc(C)nc(C)n3)cc2)c1
[8]
  AC50: 1.68 µM (active)

## C[C@@H](Cc1ccccc1)Nc1ncnc2c1ncn2[C@@H]1O[C@@H](CO)[C@H](O)[C@@H]1O
Cytochrome P450 3A4
  AC50: 10 µM (inconclusive)

## COC(=O)[C@H](N)Cc1ccc(Cl)cc1
Cytochrome P450 3A4
  AC50: 31.6 µM (inconclusive)

## CC(=O)Nc1ccc2nc(NC(=O)c3cccs3)sc2c1
[3]
  EC50: 2.26 µM (active)
[4]
  EC50: 6.27 µM (active)

## CC1CCN(C(=S)c2ccc(N(C)C)cc2)CC1
[8]
  AC50: 0.915 µM (active)

## CC(C)(C)Nc1nc(N2CCCC2)nc(N2CCCC2)n1
[10]
  EC50: 16.7 µM (active)
Cytochrome P450 2C9
  AC50: 5.01 µM (inconclusive)
[11]
  EC50: 16.7 µM (active)
[12]
  EC50: 19.6 µM (active)

## Cc1c(C(=O)N(C)C)c2cc(Cl)ccc2n1O
[8]
  AC50: 0.722 µM (active)

## N#CC(C#N)=Cc1ccc(-c2ccc(S(=O)(=O)NC(=N)N)cc2)o1
[1]
  EC50: 236 µM (active)
[2]
  EC50: > 300 µM (not active)

## Cc1cc2c(cc(C(=O)O)n2C)s1
[8]
  AC50: 30.9 µM (active)

## Cc1onc(-c2c(F)cccc2Cl)c1C(=O)N1CCCc2ccccc21
[1]
  EC50: > 300 µM (not active)
[2]
  EC50: > 300 µM (not active)

## O=C(c1ccc(Cl)s1)N1CCc2ccccc21
[13]
  EC50: 124 nM (active)
H4
  EC50: 56.2 µM (inconclusive)

## Cc1ccc(-n2nnnc2SCCNS(=O)(=O)c2ccccc2)cc1C
[10]
  EC50: > 120 µM (not active)
[11]
  EC50: > 120 µM (not active)
[12]
  EC50: 20.5 µM (active)

## CC(C)Oc1ccc(N2CC(C(=O)Nc3ccc(N4CCOCC4)cc3)CC2=O)cc1 (configuration not stated)
[3]
  EC50: > 112 µM (not active)
[4]
  EC50: > 112 µM (not active)

## O=C(CN(c1ccc(Cl)cc1)S(=O)(=O)c1ccc(Cl)c([N+](=O)[O-])c1)NCCc1ccccc1
[6]
  EC50: 3.56 µM (active)
[10]
  EC50: > 120 µM (not active)
[7]
  EC50: > 60 µM (not active)
[11]
  EC50: 9.06 µM (active)
[12]
  EC50: 8.52 µM (active)

## O=CN/N=C/c1c(O)ccc2ccccc12
[1]
  EC50: 5.35 µM (active)
[2]
  EC50: > 300 µM (not active)

## Cc1[nH]cnc1C(=O)N/N=C/c1c(Cl)cccc1Cl
[3]
  EC50: 4.22 µM (active)
[4]
  EC50: 1.54 µM (active)

## C/C(=N\C1CCCC1)c1c(C)[nH]n(-c2nc3ccccc3s2)c1=O
[1]
  EC50: > 300 µM (not active)
[8]
  AC50: 1.24 µM (active)
[2]
  EC50: > 300 µM (not active)

## CC(=O)N(C)c1ccc(/N=N/c2c(C)[nH]n(C(N)=S)c2=O)cc1
[1]
  EC50: 24.2 µM (active)
[2]
  EC50: > 300 µM (not active)

## CSc1ccc(/C=N/NC(=O)c2ccc(O)cc2)cc1
[3]
  EC50: 1.57 µM (active)
[4]
  EC50: 13.9 µM (active)

## Oc1c(/C=N/c2ccccc2Cl)[nH]c2ccccc12
[1]
  EC50: > 300 µM (not active)
[2]
  EC50: > 300 µM (not active)

Reference: ChEMBL document CHEMBL1201862, “PubChem BioAssay data set” (2004)
